This note sets out measurements from patent US11453632B2, “1-phenyl-2-phenylethane derivative” (KAO CORPORATION, priority 2018, dated 2022).

A word on the melting point: it is the temperature of the solid-liquid transition.

The test system of series [1] is prostate of testosterone-induced prostatic hyperplasia rat. Put plainly: Efficacy on prostate in testosterone-induced prostatic hyperplasia rat. The series is classed as in vivo. The note with it: testosterone 3 mg/kg/day plus test substance 0.1 or 1 mg/kg body weight/day, subcutaneous osmotic pump, 28 days, vs testosterone alone. The text has this: 12-week-old male Slc:SD (SPF) rats were obtained from Japan SLC, Inc. An acclimatization period was established for 1 week after receipt. During the acclimatization period, the rats were allowed to freely ingest a powder diet (AIN-93G).
2) Implantation of Osmotic Pump
After body weight measurement, back hair was shaved under isoflurane (AbbVie GK) inhalation anesthesia, and carprofen was subcutaneously administered to the rats. Then, an incision of approximately 1 cm at the maximum was made on the cranial side in the back. An osmotic minipump Alzet (Muromachi Kikai Co., Ltd.) containing testosterone and compound 17-F or finasteride (Sigma-Aldrich Co. LLC) was subcutaneously implanted. From this osmotic pump, testosterone (3 mg/kg body weight/day) (Sigma-Aldrich Co. LLC) and compound 17-F (0.1 mg/body weight/day or 1 mg/kg body weight/day) or finasteride (0.1 mg/kg body weight/day or 1 mg/kg body weight/day) were continuously administered for 28 days. Since the implantation of the osmotic pump, the rats were allowed to freely ingest customized feed AIN-93G (Oriental Yeast Co., Ltd.) free from components derived from soybeans.
3) Photographing of Skin and Harvesting of Prostate
After a lapse of 28 days, body weights were measured, and subsequently, the rats were euthanized by blood letting under isoflurane anesthesia. Back hair was shaved, followed by photographing. Then, the abdominal cavity was opened to harvest the prostate on the ventral side. Wet weights were measured.

Another series concerns the target T1, ERα (Homo sapiens, UniProt P03372).
T1 construct: host or cells: HEK293
T1 sequence (P03372 1-595): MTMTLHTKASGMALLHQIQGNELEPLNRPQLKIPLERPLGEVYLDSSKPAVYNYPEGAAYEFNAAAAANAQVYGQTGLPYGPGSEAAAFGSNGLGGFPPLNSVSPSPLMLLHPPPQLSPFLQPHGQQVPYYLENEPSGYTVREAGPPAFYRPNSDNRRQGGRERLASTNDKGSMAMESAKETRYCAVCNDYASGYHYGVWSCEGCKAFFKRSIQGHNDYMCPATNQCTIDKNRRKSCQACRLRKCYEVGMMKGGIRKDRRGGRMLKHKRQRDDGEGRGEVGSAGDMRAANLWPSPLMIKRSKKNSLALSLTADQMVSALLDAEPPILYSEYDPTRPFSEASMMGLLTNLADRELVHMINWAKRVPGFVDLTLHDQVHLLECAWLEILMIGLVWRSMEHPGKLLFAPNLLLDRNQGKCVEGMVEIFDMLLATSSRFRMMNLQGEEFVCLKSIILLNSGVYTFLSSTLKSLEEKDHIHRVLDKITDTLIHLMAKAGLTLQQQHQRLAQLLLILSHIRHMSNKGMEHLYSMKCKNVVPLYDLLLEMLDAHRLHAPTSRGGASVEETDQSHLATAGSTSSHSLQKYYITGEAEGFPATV
Put plainly: Ability to activate transcription mediated by ERα (pcDNA3-ERα, pERE luciferase, HEK293 cells). The series is classed as cell-based. The note with it: negative control 0.004573. As to the method: 1) Experimental Method (Measurement of Transcriptional Activity Mediated by ERs)
HEK293 cells were inoculated at a cell density of 4.0×10^4 cells/well to a 96-well plate. After 12 hours therefrom, the medium was replaced with a culture solution (DMEM containing 5% (v/v) charcoal-treated serum). The cells were cotransfected with pcDNA3-ERα or pcDNA3-ERβ (Promega Corp.) and pERE and pRL-CMV (Promega Corp.) using Lipofectamine 2000 (Invitrogen Corp.) according to the protocol attached to the product. 24 hours after transfection, the medium was replaced with a culture medium containing a test sample, followed by culture for another 24 hours. Then, luciferase activity was measured using Dual-Glo™ Luciferase Assay System (Promega Corp.) according to the attached protocol. The luminescence intensity of firefly luciferase (index for the ability to activate transcription mediated by ERE) was divided by the luminescence intensity of Renilla reniformis luciferase (index for the transfection efficiency of the plasmids) to calculate a relative light unit (RLU).

The next series deals with T2, ERβ LBD (Homo sapiens, UniProt Q92731).
T2 construct: host or cells: HEK293
T2 sequence (Q92731 264-498 limits assumed): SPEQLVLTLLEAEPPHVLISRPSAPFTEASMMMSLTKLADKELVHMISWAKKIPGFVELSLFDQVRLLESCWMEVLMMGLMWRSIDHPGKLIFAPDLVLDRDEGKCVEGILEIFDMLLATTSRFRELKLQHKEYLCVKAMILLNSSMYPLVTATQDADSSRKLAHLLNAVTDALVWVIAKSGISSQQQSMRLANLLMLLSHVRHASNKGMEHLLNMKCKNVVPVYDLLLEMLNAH
Put plainly: Ability to bind to ERβ: pBIND-ERβ LBD / GAL4 luciferase reporter in HEK293 cells. The note with it: negative control 0.0118997. The series is classed as cell-based. Details: key: RLU = firefly luminescence / Renilla luminescence. As to the method:
This evaluation system is a system exploiting difference in the sequence of the ligand binding domain (LBD) between ERα and ERβ (J Endocrinol 163: 379-383 (1999)), and enables selective activation of ERβ to be evaluated by determining the binding of a ligand to LBD and the activation of ER.
A human kidney-derived cell line HEK293 was cultured (37° C., 5% CO2) in Dulbecco's modified Eagle medium (hereinafter, abbreviated to DMEM) containing 10% (v/v) fetal bovine serum (FBS) and penicillin/streptomycin.
2) Measurement of Binding Activity Against ERs
This measurement was carried out according to the method described in JP-B-5990058. Specifically, HEK293 cells were inoculated at a cell density of 4.0×10^4 cells/well to a 96-well plate. After 12 hours therefrom, the medium was replaced with a culture solution (DMEM containing 5% (v/v) charcoal-treated serum). The cells were cotransfected with pBIND-ERα for the expression of ERα LBD or pBIND-ERβ for the expression of ERβ LBD (Promega Corp.) and pGL4.35[luc2P/9XGAL4UAS/Hygro](Promega Corp.) using Lipofectamine 2000 (Invitrogen Corp.) according to the protocol attached to the product. 24 hours after transfection, the medium was replaced with a culture solution containing a test sample, followed by culture for another 24 hours. The activity measurement of firefly luciferase (index for the ligand binding activity of ER) and Renilla reniformis luciferase (index for the transfection efficiency of the plasmids) was carried out using Dual-Glo™ Luciferase Assay System (Promega Corp.) according to the attached protocol. The luminescence intensity of the firefly luciferase was divided by the luminescence intensity of the Renilla reniformis luciferase to calculate a relative light unit (RLU).

`Oc1ccc(CC(C=C(F)F)c2ccc(O)cc2F)c(F)c1` (centres unmarked) [Compound 17-F, 4,4′-(4,4-difluorobut-3-ene-1,2-diyl)bis(3-fluorophenol)] gave a melting point of 90 to 91 °C. In series [1], the “size of the prostate (visual, FIG. 1)” value is recorded as “Concentration-dependent decrease in the size of the prostate” and the “weight of the prostate corrected with the body weight (FIG. 2)” value is reported as “decreased to almost the same level as in the DMSO administration group”. In addition, the “relative light unit (RLU), transcription activation ERα” value on ERα (0.1 pM) worked out at 0.008213. Moreover, the “relative light unit (RLU), transcription activation ERα” value at ERα (1 pM) is 0.01023. The “relative light unit (RLU), transcription activation ERα” value on ERα (10 pM) is on record as 0.01835. Moreover, the “relative light unit (RLU), transcription activation ERα” value on ERα (100 pM) was determined as 0.04125. For the same molecule, the “relative light unit (RLU), transcription activation ERα” value on ERα (1000 pM) came out at 0.06202. At ERα (10000 pM), the “relative light unit (RLU), transcription activation ERα” value worked out at 0.05401. In addition, on ERβ LBD (0.01 nM), the “relative light unit (RLU), ligand binding activity ERβ” value is 0.4273. Moreover, at ERβ LBD (0.1 nM), the “relative light unit (RLU), ligand binding activity ERβ” value worked out at 1.771. Also, the “relative light unit (RLU), ligand binding activity ERβ” value at ERβ LBD (1 nM) is recorded as 2.021. The “relative light unit (RLU), ligand binding activity ERβ” value at ERβ LBD (10 nM) was 2.367. For the same molecule, the “relative light unit (RLU), ligand binding activity ERβ” value at ERβ LBD (100 nM) was determined as 2.186.
